Patent US20240059703A1 (AMGEN INC., priority 2021, published 2024)

How the values were obtained:
KRAS G12C = KRAS G12C (Homo sapiens (Human), UniProt P01116, C118A/G12C); test: 2 h coupled exchange assay; type: biochemical; conditions: Avg 2 h Coupled exchange IC50, 2 h compound pre-incubation
Method: The term “2 h coupled exchange assay” or “20 h coupled exchange assay” as used herein refers to the assay described in the Section entitled “BIOLOGICAL EVALUATION.”

[1] = test system: MIA PaCa-2 (human pancreatic carcinoma) cells; test: Cell Viability Assay (CellTiter-Glo), MIA PaCa-2; type: cell-based; conditions: Homo sapiens, MIA PaCa-2, 72 h
Method: Serially-diluted compound or DMSO was added to the cells, and plates were incubated at 37° C., 5% CO2 for 72 h. Cell viability was measured using a CellTiter-Glo® Luminescent Cell Viability Assay kit (Promega) according to the manufacturer's protocol. The luminescence signal of treated samples was normalized to DMSO control, and data were analyzed using a 4-parameter logistic model to calculate IC50 values.

[2] = test system: A549 (human lung carcinoma) cells; test: Cell Viability Assay (CellTiter-Glo), A549; type: cell-based; conditions: Homo sapiens, A549, 72 h
How it was run: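 RPMI 1640/10% FBS; seed 1.67E+04 cells/mL, o/n 37° C., 5% CO2; serial-dilution cmpd 72 h; CellTiter-Glo luminescence vs DMSO; 4-parameter logistic fit → IC50.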

[3] = SOS-mediated nucleotide exchange

Chain of KRAS G12C (P01116 other isoform, or with tags, fused parts or gaps G12C/C118A): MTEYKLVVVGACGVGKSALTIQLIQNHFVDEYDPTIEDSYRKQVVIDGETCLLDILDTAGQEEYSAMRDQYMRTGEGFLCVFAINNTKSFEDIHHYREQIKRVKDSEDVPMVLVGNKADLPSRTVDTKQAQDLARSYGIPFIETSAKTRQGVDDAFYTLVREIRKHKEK

Structure (SMILES)	IC50 (KRAS G12C) [nM]	IC50 [1] [nM]	IC50 [2] [nM]	IC50 (KRAS G12C; [3]) [nM]
C=CC(=O)N1CC2(CCN(c3nc4c(c(-c5ccccc5F)c3C#N)CCN(c3scnc3C)C4C)C2)C1 [Example 21-4, (8R)-4-(2-fluorophenyl)-8-methyl-7-(4-methyl-1,3-thiazol-5-yl)-2-(2-(2-propenoyl)-2,6-diazaspiro[3.4]octan-6-yl)-5,6,7,8-tetrahydro-1,7-naphthyridine-3-carbonitrile (8S)-4-(2-fluorophenyl)-8-methyl-7-(4-methyl-1,3-thiazol-5-yl)-2-(2-(2-propenoyl)-2,6-diazaspiro[3.4]octan-6-yl)-5,6,7,8-tetrahydro-1,7-naphthyridine-3-carbonitrile]	85	1610	10100	
C=CC(=O)N1CC2(CCN(c3nc4c(c(-c5c(C)ccc6cnn(C)c56)c3C)CC[C@@H](c3c(C)cnn3C)C4)C2)C1 (single isomer, unassigned) [Example 14-98]	71	80	> 5000	
C=CC(=O)N1CC2(CCN(c3nc4cc(-c5ccnn5C)ccc4c(-c4cc(O)ccc4Cl)c3C)C2)C1 [Example 16-9, 1-(6-(4-(2-chloro-5-hydroxyphenyl)-3-methyl-7-(1-methyl-1H-pyrazol-5-yl)-2-quinolinyl)-2,6-diazaspiro[3.4]octan-2-yl)-2-propen-1-one]	60	1330	> 5000	
C=CC(=O)N1CC2(CCN(c3nc4c(c(-c5cc(O)cc6ccccc56)n3)CCCC4)C2)C1 [Example 1-1, 1-(6-(4-(3-hydroxynaphthalen-1-yl)-5,6,7,8-tetrahydroquinazolin-2-yl)-2,6-diazaspiro[3.4]octan-2-yl)prop-2-en-1-one]		> 5000	> 5000	431
C=CC(=O)N1CC2(CCN(c3nc4c(F)cccc4c(-c4c(C)ccc5[nH]ncc45)c3C#N)C2CF)C1 (stereo not drawn) [Example 1-49, 8-fluoro-2-(5-(fluoromethyl)-2-(2-propenoyl)-2,6-diazaspiro[3.4]octan-6-yl)-4-(5-methyl-1H-indazol-4-yl)-3-quinolinecarbonitrile]		24600	13400	124
C=CC(=O)N1CC2(CCN(c3nc4c(c(-c5ccccc5F)c3C#N)CCN(C3CCCN(C)C3)C4)C2)C1 [Example 21-30, 4-(2-fluorophenyl)-7-((3R)-1-methyl-3-piperidinyl)-2-(2-(2-propenoyl)-2,6-diazaspiro[3.4]octan-6-yl)-5,6,7,8-tetrahydro-1,7-naphthyridine-3-carbonitrile 4-(2-fluorophenyl)-7-((3S)-1-methyl-3-piperidinyl)-2-(2-(2-propenoyl)-2,6-diazaspiro[3.4]octan-6-yl)-5,6,7,8-tetrahydro-1,7-naphthyridine-3-carbonitrile]	211	2090	15400	
C=CC(=O)N1CC2(CCN(c3nc4c(c(-c5c(C)ccc6[nH]ncc56)c3C#N)CC(C)(C)C4)C2C)C1 [Example 13-52, 6,6-dimethyl-4-(5-methyl-1H-indazol-4-yl)-2-((5R)-5-methyl-2-(2-propenoyl)-2,6-diazaspiro[3.4]octan-6-yl)-6,7-dihydro-5H-cyclopenta[b]pyridine-3-carbonitrile|6,6-dimethyl-4-(5-methyl-1H-indazol-4-yl)-2-((5S)-5-methyl-2-(2-propenoyl)-2,6-diazaspiro[3.4]octan-6-yl)-6,7-dihydro-5H-cyclopenta[b]pyridine-3-carbonitrile]		231	> 5000	43
C=CC(=O)N1CC2(CCN(c3nc4c(c(-c5c(C)ccc6[nH]ncc56)c3C#N)CCC(C)(C)C4)[C@@H]2CF)C1 (stereo in doubt) [Example 13-79, (M)-2-((5R)-5-(fluoromethyl)-2-(2-propenoyl)-2,6-diazaspiro[3.4]octan-6-yl)-7,7-dimethyl-4-(5-methyl-1H-indaazol-4-yl)-5,6,7,8-tetrahydro-3-quinolinecarbonitrile and (P)-((5S)-5-(fluoromethyl)-2-(2-propenoyl)-2,6-diazaspiro[3.4]octan-6-yl)-7,7-dimethyl-4-(5-methyl-1H-indazol-4-yl)-5,6,7,8-tetrahydro-3-quinolinecarbonitrile]		8240	7450	433
C=CC(=O)N1CC2(CCN(c3nc4c(c(-c5cccc6cc(O)ccc56)c3C)CCN(C)C4)C2)C1 [Example 18-6, 1-(6-(4-(6-hydroxy-1-naphthalenyl)-3,7-dimethyl-5,6,7,8-tetrahydro-1,7-naphthyridin-2-yl)-2,6-diazaspiro[3.4]octan-2-yl)-2-propen-1-one]	80	70	> 5000	
C=CC(=O)N1CC2(CCN(c3cc4c(c(-c5c(C)c(Cl)cc6cnn(C)c56)c3C#N)OCCC4)C2)C1 [Example 2-104, 8-(5-chloro-1,6-dimethyl-1H-indazol-7-yl)-6-(2-(2-propenoyl)-2,6-diazaspiro[3.4]octan-6-yl)-3,4-dihydro-2H-chromene-7-carbonitrile]		3	> 5000	18
C=CC(=O)N1CC2(CCN(c3nc4c(c(-c5cc(O)ccc5Cl)c3C#N)C[C@H]3C[C@@H]4C3(C)C)C2)C1 (single isomer, unassigned) [Example 2-74]		202	> 5000	21
C=CC(=O)N1CC2(CCN(c3nc4c(c(-c5cc(O)cc(F)c5Cl)c3C#N)C[C@H]3C[C@@H]4C3(C)C)C2)C1 [Example 12-34, (1R,9R)-6-(2-chloro-3-fluoro-5-hydroxyphenyl)-10,10-dimethyl-4-(2-(2-propenoyl)-2,6-diazaspiro[3.4]octan-6-yl)-3-azatricyclo[7.1.1.0^2,7] undeca-2,4,6-triene-5-carbonitrile]		92	> 5000	20
C=CC(=O)N1CC2(CCN(c3nc4c(c(-c5c(C)c(C)cc6cnn(C)c56)c3C)COC(C)(C)C4)C2)C1 (single isomer, unassigned) [Example 14-41, (P)-1-(6-(3,7,7-trimethyl-4-(1,5,6-trimethyl-1H-indazol-7-yl)-7,8-dihydro-5H-pyrano[4,3-b]pyridin-2-yl)-2,6-diazaspiro[3.4]octan-2-yl)-2-propen-1-one]	66	408	> 5000	
C=CC(=O)N1CC2(CCN(c3nc4c(c(-c5cc(O)cc6ccccc56)c3C#N)COC(C)(C)C4)C2)C1 [Example 13-41, 4-(3-hydroxy-1-naphthalenyl)-7,7-dimethyl-2-(2-(2-propenoyl)-2,6-diazaspiro[3.4]octan-6-yl)-7,8-dihydro-5H-pyrano[4,3-b]pyridine-3-carbonitrile]		190	> 5000	33
C=CC(=O)N1CC2(CCN(c3nc4c(c(-c5c(C)ccc6[nH]ncc56)c3C)CCC(C)(C)C4)C2)C1 [Example 2-28, 1-(6-(3,7,7-trimethyl-4-(5-methyl-1H-indazol-4-yl)-5,6,7,8-tetrahydro-2-quinolinyl)-2,6-diazaspiro[3.4]octan-2-yl)-2-propen-1-one]		187	> 5000	67
